Data taken from US9409857B2 (SHANGHAI RIGHTHAND PHARMTECH. CO., LTD., priority 2012, dated 2016).
≈ marks a conversion by molar mass, not a printed value. Where “and” joins values, the source holds several entries; their conditions need not be identical. Equal entries are not always repeated. Where two headings read alike, the source gives them in different places.

What was measured:
[1] = Determination of stability under accelerated testing condition (HPLC total impurities); assay type: physicochemical; conditions: (40±2)°C, relative humidity (75±5)%, Batch 1-3 on separate table lines
Procedure: Conditions for chromatogram: octadecyl silane chemically bonded silica was used as a filler; a mixed solution wherein methanol-acetonitrile-phosphate buffer (10 mM/L, pH adjusted to 2.7 with phosphoric acid)=40:20:40 was used as mobile phase; column temperature was 40° C.; detecting wavelength was 220 nm. The purity of each of the products in the above described Example was determined using internal standard method. […] The stability of each of the batches was studied via High Performance Liquid Chromatography (HPLC) and the content percentage of the total related substances (total impurities) was determined in addition to the peaks of Agomelatine and acid radicals.

[2] = pH 7
physchem = conditions: thermodynamic from solid
[3] = Determination of water solubility by external standard method

total impurities % (total related substances) ([1]; time 0 month)	total impurities % (total related substances) ([1]; time 1 month)	total impurities % (total related substances) ([1]; time 2 months)	total impurities % (total related substances) ([1]; time 3 months)	total impurities % (total related substances) ([1]; time 6 months)	Agomelatine content (solubility) [2] [µg/mL]	solubility (physchem; pH 7, aqueous buffer) [µg/mL]	solubility (physchem; simulated gastric fluid) [µg/mL]	solubility (physchem; water) [µg/mL]	Compound	Agomelatine content (solubility) ([3]; pH = 7.0 buffer solution) [µg/mL]	Agomelatine content (solubility) ([3]; pury water) [µg/mL]
0.11% and 0.12% and 0.14%	0.12% and 0.14%	0.12% and 0.14% and 0.16%	0.14% and 0.16%	0.14% and 0.15% and 0.17%	–	–	–	–	Agomelatine benzenesulfonic acid complex	–	–
0.21% and 0.22% and 0.24%	0.22% and 0.24%	0.22% and 0.23% and 0.25%	0.23% and 0.25%	0.23% and 0.24% and 0.26%	320	–	–	–	COc1ccc2cccc(CCNC(C)=O)c2c1.CS(=O)(=O)O [Agomelatine methanesulfonic acid complex]	–	–
–	–	–	–	–	–	260 (≈ 1070 µM)	290 (≈ 1190 µM)	270 (≈ 1110 µM)	COc1ccc2cccc(CCNC(C)=O)c2c1 [Agomelatine crystallographic form II, N-[2-(7-methoxyl-1-naphthyl)ethyl]acetamide]	–	–

Compound	total impurities % (total related substances) ([1]; time 0 month)	total impurities % (total related substances) ([1]; time 1 month)	total impurities % (total related substances) ([1]; time 2 months)	total impurities % (total related substances) ([1]; time 3 months)	total impurities % (total related substances) ([1]; time 6 months)	Agomelatine content (solubility) [2] [µg/mL]	solubility (physchem; pH 7, aqueous buffer) [µg/mL]	solubility (physchem; simulated gastric fluid) [µg/mL]	solubility (physchem; water) [µg/mL]	Agomelatine content (solubility) ([3]; pH = 7.0 buffer solution) [µg/mL]	Agomelatine content (solubility) ([3]; pury water) [µg/mL]
Agomelatine sulfuric acid complex	0.11% and 0.12% and 0.14%	0.12% and 0.14%	0.12% and 0.13% and 0.15%	0.13% and 0.15%	0.13% and 0.14% and 0.16%	–	–	–	–	330	340
